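Compound exposure: 48 hours, 5 concentrations, 96-well plates. GI50 marks 50% less growth. TGI: concentration producing complete growth inhibition.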
Columns and labels:
Experiment in all cases: inhibition of tumour cell growth, NCI panel, 48 h
786-0 renal = tested on: 786-0 renal
A498 renal = tested on: A498 renal
A549 NSCLC = tested on: A549 NSCLC
ACHN renal = tested on: ACHN renal
BT-549 breast = tested on: BT-549 breast
CAKI-1 renal = tested on: CAKI-1 renal
CCRF-CEM leukemia = tested on: CCRF-CEM leukemia
COLO 205 colon = tested on: COLO 205 colon
DU-145 prostate = tested on: DU-145 prostate
EKVX NSCLC = tested on: EKVX NSCLC
HCC-2998 colon = tested on: HCC-2998 colon
HCT-116 colon = tested on: HCT-116 colon
HCT-15 colon = tested on: HCT-15 colon
HL-60(TB) leukemia = tested on: HL-60(TB) leukemia
HOP-62 NSCLC = tested on: HOP-62 NSCLC
HOP-92 NSCLC = tested on: HOP-92 NSCLC
HS 578T breast = tested on: HS 578T breast
HT29 colon = tested on: HT29 colon
IGROV1 ovarian = tested on: IGROV1 ovarian
K-562 leukemia = tested on: K-562 leukemia
KM12 colon = tested on: KM12 colon
LOX IMVI melanoma = tested on: LOX IMVI melanoma
M14 melanoma = tested on: M14 melanoma
MALME-3M melanoma = tested on: MALME-3M melanoma
MCF7 breast = tested on: MCF7 breast
MDA-MB-231 breast = tested on: MDA-MB-231 breast
MDA-MB-435 = tested on: MDA-MB-435
MOLT-4 leukemia = tested on: MOLT-4 leukemia
NCI-H226 lung = tested on: NCI-H226 lung
NCI-H23 lung = tested on: NCI-H23 lung
NCI-H460 lung = tested on: NCI-H460 lung
NCI-H522 lung = tested on: NCI-H522 lung
NCI/ADR-RES ovarian = tested on: NCI/ADR-RES ovarian
OVCAR-3 ovarian = tested on: OVCAR-3 ovarian
OVCAR-4 ovarian = tested on: OVCAR-4 ovarian
OVCAR-5 ovarian = tested on: OVCAR-5 ovarian
OVCAR-8 ovarian = tested on: OVCAR-8 ovarian
PC-3 prostate = tested on: PC-3 prostate
RPMI-8226 leukemia = tested on: RPMI-8226 leukemia
RXF 393 renal = tested on: RXF 393 renal
SF-268 CNS = tested on: SF-268 CNS
SF-295 CNS = tested on: SF-295 CNS
SF-539 CNS = tested on: SF-539 CNS
SK-MEL-2 melanoma = tested on: SK-MEL-2 melanoma
SK-MEL-28 melanoma = tested on: SK-MEL-28 melanoma
SK-MEL-5 melanoma = tested on: SK-MEL-5 melanoma
SK-OV-3 ovarian = tested on: SK-OV-3 ovarian
SN12C renal = tested on: SN12C renal
SNB-19 CNS = tested on: SNB-19 CNS
SNB-75 CNS = tested on: SNB-75 CNS
SR leukemia = tested on: SR leukemia
SW-620 colon = tested on: SW-620 colon
T-47D breast = tested on: T-47D breast
TK-10 renal = tested on: TK-10 renal
U251 CNS = tested on: U251 CNS
UACC-257 melanoma = tested on: UACC-257 melanoma
UACC-62 melanoma = tested on: UACC-62 melanoma
UO-31 renal = tested on: UO-31 renal

Structure (SMILES): O=C(NCCO)Nc1ccc(-c2nc(N3CCOCC3)c3cccn3n2)cc1
- GI50 (786-0 renal): 0.218 µM
- TGI (786-0 renal): 6.14 µM
- GI50 (A498 renal): < 0.0373 µM
- TGI (A498 renal): 0.125 µM
- GI50 (A549 NSCLC): 2.07 µM
- TGI (A549 NSCLC): 18.3 µM
- GI50 (ACHN renal): 0.0614 µM
- TGI (ACHN renal): > 100 µM
- GI50 (BT-549 breast): 0.0729 µM
- TGI (BT-549 breast): 3.6 µM
- GI50 (CAKI-1 renal): 1.16 µM
- TGI (CAKI-1 renal): > 100 µM
- GI50 (CCRF-CEM leukemia): 2.98 µM
- TGI (CCRF-CEM leukemia): > 100 µM
- GI50 (COLO 205 colon): 0.117 µM
- TGI (COLO 205 colon): 9.08 µM
- GI50 (DU-145 prostate): 0.232 µM
- TGI (DU-145 prostate): > 58.5 µM
- GI50 (EKVX NSCLC): 0.183 µM
- TGI (EKVX NSCLC): 8.47 µM
- GI50 (HCC-2998 colon): 0.488 µM
- TGI (HCC-2998 colon): > 100 µM
- GI50 (HCT-116 colon): 1.85 µM
- TGI (HCT-116 colon): > 100 µM
- GI50 (HCT-15 colon): 0.359 µM
- TGI (HCT-15 colon): > 100 µM
- GI50 (HL-60(TB) leukemia): 2.21 µM
- TGI (HL-60(TB) leukemia): > 100 µM
- GI50 (HOP-62 NSCLC): 0.122 µM
- TGI (HOP-62 NSCLC): 3.85 µM
- GI50 (HOP-92 NSCLC): 0.0466 µM
- TGI (HOP-92 NSCLC): 1.09 µM
- GI50 (HS 578T breast): 0.0889 µM
- TGI (HS 578T breast): 0.836 µM
- GI50 (HT29 colon): 0.496 µM
- TGI (HT29 colon): > 100 µM
- GI50 (IGROV1 ovarian): 0.167 µM
- TGI (IGROV1 ovarian): 1.08 µM
- GI50 (K-562 leukemia): 2.8 µM
- TGI (K-562 leukemia): > 100 µM
- GI50 (KM12 colon): 0.579 µM
- TGI (KM12 colon): > 100 µM
- GI50 (LOX IMVI melanoma): 0.693 µM
- TGI (LOX IMVI melanoma): 35.3 µM
- GI50 (M14 melanoma): 0.189 µM
- TGI (M14 melanoma): > 65.5 µM
- TGI (MALME-3M melanoma): 0.0506 µM
- GI50 (MCF7 breast): 0.0703 µM
- TGI (MCF7 breast): > 100 µM
- GI50 (MDA-MB-231 breast): 0.172 µM
- TGI (MDA-MB-231 breast): 14.6 µM
- GI50 (MDA-MB-435): 0.188 µM
- TGI (MDA-MB-435): > 28.1 µM
- GI50 (MOLT-4 leukemia): 0.217 µM
- TGI (MOLT-4 leukemia): > 49.2 µM
- GI50 (NCI-H226 lung): 0.13 µM
- TGI (NCI-H226 lung): 6.33 µM
- GI50 (NCI-H23 lung): 0.239 µM
- TGI (NCI-H23 lung): > 100 µM
- GI50 (NCI-H460 lung): 0.19 µM
- TGI (NCI-H460 lung): > 100 µM
- GI50 (NCI-H522 lung): 0.0833 µM
- TGI (NCI-H522 lung): > 100 µM
- GI50 (NCI/ADR-RES ovarian): 2.25 µM
- TGI (NCI/ADR-RES ovarian): > 33.7 µM
- GI50 (OVCAR-3 ovarian): 0.17 µM
- TGI (OVCAR-3 ovarian): 9.82 µM
- GI50 (OVCAR-4 ovarian): 0.0892 µM
- TGI (OVCAR-4 ovarian): 3.75 µM
- GI50 (OVCAR-5 ovarian): 0.138 µM
- TGI (OVCAR-5 ovarian): 20.7 µM
- GI50 (OVCAR-8 ovarian): 0.257 µM
- TGI (OVCAR-8 ovarian): 21.1 µM
- GI50 (PC-3 prostate): 0.103 µM
- TGI (PC-3 prostate): > 100 µM
- GI50 (RPMI-8226 leukemia): 0.405 µM
- TGI (RPMI-8226 leukemia): > 54.6 µM
- GI50 (RXF 393 renal): 0.0686 µM
- TGI (RXF 393 renal): 1.39 µM
- GI50 (SF-268 CNS): 0.164 µM
- TGI (SF-268 CNS): > 95.9 µM
- GI50 (SF-295 CNS): 0.117 µM
- TGI (SF-295 CNS): 2.13 µM
- GI50 (SF-539 CNS): 0.315 µM
- TGI (SF-539 CNS): 5.72 µM
- GI50 (SK-MEL-2 melanoma): 0.256 µM
- TGI (SK-MEL-2 melanoma): 5.09 µM
- GI50 (SK-MEL-28 melanoma): 0.108 µM
- TGI (SK-MEL-28 melanoma): 4.59 µM
- GI50 (SK-MEL-5 melanoma): 0.236 µM
- TGI (SK-MEL-5 melanoma): 3.67 µM
- GI50 (SK-OV-3 ovarian): 0.0602 µM
- TGI (SK-OV-3 ovarian): 0.291 µM
- GI50 (SN12C renal): 0.567 µM
- TGI (SN12C renal): > 100 µM
- GI50 (SNB-19 CNS): 2.14 µM
- TGI (SNB-19 CNS): > 100 µM
- GI50 (SNB-75 CNS): 0.0445 µM
- TGI (SNB-75 CNS): 1.08 µM
- GI50 (SR leukemia): 0.232 µM
- TGI (SR leukemia): > 100 µM
- GI50 (SW-620 colon): 1.65 µM
- TGI (SW-620 colon): > 100 µM
- GI50 (T-47D breast): < 0.0212 µM
- TGI (T-47D breast): 0.125 µM
- GI50 (TK-10 renal): 0.0935 µM
- TGI (TK-10 renal): 2.64 µM
- GI50 (U251 CNS): 1.01 µM
- TGI (U251 CNS): > 95.1 µM
- GI50 (UACC-257 melanoma): 0.149 µM
- TGI (UACC-257 melanoma): 4.29 µM
- GI50 (UACC-62 melanoma): 0.0809 µM
- TGI (UACC-62 melanoma): 1.84 µM
- GI50 (UO-31 renal): 0.0573 µM
- TGI (UO-31 renal): 1.63 µM

Source: PubChem BioAssay (NCI)
